pIC50: −log10 of the molar value.
Tests used:
[1] = molecular target: T1, RAC-alpha serine/threonine-protein kinase [139-480,S378A,S381A,T450D,S473D] (Homo sapiens, UniProt P31749, S378A/S381A/S473D/T450D); experiment: Akt Kinase Assay
T1 construct: 139-480
Experimental: (§1) The kinase assay uses His-Akt1 and a biotinylated peptide as substrate. The biotinylated peptides were immobilized on streptavidin-coated FLASH plates. After reaction, the 33P-phosphopeptide captured on the FLASH plates was measured with a TopCount Packard Instruments […] (Packard Instruments, Boston, MA).

[2] = molecular target: cAMP-dependent protein kinase catalytic subunit alpha (Bos taurus, UniProt P00517); experiment: PKA/PKC Kinase Assay
Experimental: as §1, with “purified recombinant enzyme” for “His-Akt1”, “MA). IC50s were calculated using the sigmoidal curve fit with the Assay Explorer software (MDL, Los Angeles, CA).” for “MA).”

T1 sequence (P31749 139-480 S378A/S381A/T450D/S473D): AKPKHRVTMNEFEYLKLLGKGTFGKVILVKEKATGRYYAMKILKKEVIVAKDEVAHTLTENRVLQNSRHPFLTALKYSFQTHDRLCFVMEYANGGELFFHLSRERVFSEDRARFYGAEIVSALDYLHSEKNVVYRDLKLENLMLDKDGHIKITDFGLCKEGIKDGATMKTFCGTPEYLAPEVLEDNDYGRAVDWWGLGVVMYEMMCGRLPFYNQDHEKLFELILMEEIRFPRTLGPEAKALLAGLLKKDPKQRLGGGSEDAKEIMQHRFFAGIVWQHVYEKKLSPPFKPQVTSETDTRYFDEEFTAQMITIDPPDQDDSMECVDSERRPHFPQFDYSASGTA

SMILES	pIC50 ([1]; pH 7.5, 22 °C)	pIC50 ([2]; pH 7.5, 22 °C)	pIC50 [1]	pIC50 [2]
Cc1n[nH]c2ccc(-c3cncc(OC[C@@H](N)Cc4c[nH]c5ccccc45)c3)cc12 [5-{5-[(2S)-2-amino-3-(1H-indol-3-yl)propoxy]pyridin-3-yl}-3-methyl-1H-indazole]	9.80	8.22	–	–
Cc1n[nH]c2ccc(-c3cncc(OC[C@@H](N)Cc4ccc(Br)cc4)c3)cc12 [5-{5-[(2S)-2-amino-3-(4-bromophenyl)propoxy]pyridin-3-yl}-3-methyl-1H-indazole]	–	–	8.30	7.82
Cc1n[nH]c2ccc(-c3cncc(OC[C@@H](N)Cc4cccc(OCC5CCCCC5)c4)c3)cc12 [5-{5-[(2S)-2-amino-3-[3-(cyclohexylmethoxy)phenyl]propoxy]pyridin-3-yl}-3-methyl-1H-indazole]	–	–	–	< 5.52
Cc1n[nH]c2ccc(-c3cncc(OC[C@@H](N)Cc4ccccc4)c3)cc12 [Biochemistry 469551 Compound 11]	–	7.80	–	–

Reference: BindingDB's records for doi:10.1021/jm0701019 (Abbott Laboratories, 2007)
